Measured values: patent publication US20100256145A1, “USE OF KCNQ POTASSIUM CHANNEL OPENERS FOR REDUCING SYMPTOMS OF OR TREATING DISORDERS OR CONDITIONS WHEREIN THE DOPAMINERGIC SYSTEM IS DISRUPTED” (H. LUNDBECK A/S, priority 2007, published 2010)
Marks after values point to notes of the source that are not given here.

Tests used:
[1] = test system: social behaviours in the Mutual Resident Intruder rat test; experiment: Mutual Resident Intruder rat test; conditions: for % of time Agonistic behaviour: sum of defensive and aggressive behaviour
[2] = test system: social behaviours in the rat Tetradic Encounter test; experiment: Rat Tetradic Encounter test; conditions: for % of time Agonistic behaviour: sum of defensive and aggressive behaviour
[3] = test system: choice of the large-but-delayed reward (impulsivity); experiment: Rat T-maze procedure: large-but-delayed vs small-but-immediate reward; type: in vivo; conditions: juvenile Wistar rats; for % Choice of the large but delayed reward on Control sessions: placebo administered before control (pre-drug and post-drug) sessions of the same group
Procedure: Subjects. male Wistar AF rats (28-41 days old) (Centre d′Elevage René Janvier, France) were used. […] During the whole study, tap water was provided ad libitum. Food was restricted to 5-10 g/day/animal in order to maintain animals at 65-75% of their free feeding weight
Experimental procedure. The experiments were performed in two identical T-maze apparatus constructed from opaque grey plastic tubing and consisting of a starting runway (30 cm long) and two arms (35 cm long) each leading to a rectangular black plastic goal box (18 cm large, 30 cm wide, 10 cm high). Removable grey plastic guillotine doors could be inserted into the vertical clefts, situated at the entry of the starting runway and at each end of the arms. One of the goal-boxes (left or right, depending on the rats) was constantly provided with a large reward, the other with a small reward. Large and small rewards consisted, respectively, of 5 and 1 pellets (20 mg, Technical & Scientific Equipment GmbH, Germany). The pellets were placed in a translucent food-cup before each trial.
First phase: habituation. Animals were first subjected to two 5-min sessions of habituation. The rat was gently introduced in the starting runway, which then was closed with a guillotine door inserted in the cleft (referred to as c0 in FIG. 1). The animal was allowed to freely explore the apparatus and to eat food rewards placed in the food cups.
Second phase: pretraining. After a door was placed in the cleft c2 near each goal-box, the rat was introduced in the starting runway. When it entered one of the two arms, a door was inserted behind it in the cleft c1 near the choice area and the door placed in cleft c2 was removed. As soon as the animal entered the goal-box, the door was placed again in the cleft c2. The rat was removed from the goal-box as soon as the pellets were eaten (usually within less than 1 min). The animal was then returned to its home cage for an intertrial interval of 2 to 3 min. Each rat was submitted one to five times/day to five trials sessions in this procedure. Training was initiated when the rat selected the arm giving access to the large reward in more than 14 out of 15 trials.
Third phase: training. Rats underwent one to five times/day five trials training sessions during which a delay was introduced before access to the large reward. After a door was placed in the cleft c2 near each goal-box, the rat was introduced in the starting runway. When it entered one of the two arms, a second door was inserted behind it in the cleft c1 near the choice area, so that rat selecting the arm leading to the large reward could be detained in this arm for a period (referred to as the waiting delay) before having access to the reinforcement. Otherwise, if the animal selected the arm leading to the small reward, the door placed in the cleft c2 was immediately opened, allowing the animal to enter the goal-box. At the beginning of training, the waiting delay was 30 sec. Then, if the percentage of choices of the large and delayed reward remained high (i.e. ≧40%) for more than six sessions, it was increased to 45 sec, and if necessary to 60 sec, 90 sec and finally 120 sec. Drug testing began when the animal selected the large and delayed reward in two trials out of five (or less) in two consecutive sessions and in one trial out of five (or less) in the following session.
Drug testing was conducted over six consecutive test-sessions of five trials each, during which the access to the large reward was preceded by the waiting delay. Test sessions were: Two control pre-drug sessions: control pre-drug session 1 and control pre-drug session 2; Two drug sessions: drug session 1 and drug session 2; Two control post-drug sessions: control post-drug session 1 and control post-drug session 2.

[4] = 1 mg/kg s.c. 30 min before test
[5] = 5 mg/kg s.c. 30 min before test

Structure (SMILES) | % Choice of the large but delayed reward on Control sessions [3] [%] | % of time Aggressive behaviour [1, 4] | % of time Defensive behaviour [1, 4] | % of time Friendly behaviour [1, 4] | % of time Non-social behaviour [1, 4] | % of time Agonistic behaviour [1, 4] | % of time Aggressive behaviour [1, 5] | % of time Defensive behaviour [1, 5] | % of time Friendly behaviour [1, 5] | % of time Non-social behaviour [1, 5] | % of time Agonistic behaviour [1, 5] | % of time Aggressive behaviour [2, 4] | % of time Defensive behaviour [2, 4] | % of time Friendly behaviour [2, 4] | % of time Non-social behaviour [2, 4] | % of time Agonistic behaviour [2, 4] | % of time Aggressive behaviour [2, 5] | % of time Defensive behaviour [2, 5] | % of time Friendly behaviour [2, 5] | % of time Non-social behaviour [2, 5] | other results
C[C@H](N)Cc1ccccc1 [Amphetamine, D-amphetamine, reference compound] |  |  |  |  |  |  |  |  |  |  |  |  |  |  |  |  |  |  |  |  | % of time Aggressive behaviour ([1]; 0.5 mg/kg (positive control)): 3.9*** % of time; % of time Defensive behaviour ([1]; 0.5 mg/kg (positive control)): 4.0*** % of time; % of time Friendly behaviour ([1]; 0.5 mg/kg (positive control)): 5.3 % of time; % of time Non-social behaviour ([1]; 0.5 mg/kg (positive control)): 86.8*** % of time; % of time Agonistic behaviour ([1]; 0.5 mg/kg (positive control)): 7.9*** % of time; % of time Aggressive behaviour ([2]; 0.5 mg/kg (positive control)): 0.1*** % of time; % of time Defensive behaviour ([2]; 0.5 mg/kg (positive control)): 1.2*** % of time; % of time Friendly behaviour ([2]; 0.5 mg/kg (positive control)): 17.3* % of time; % of time Non-social behaviour ([2]; 0.5 mg/kg (positive control)): 81.4*** % of time; % of time Agonistic behaviour ([2]; 0.5 mg/kg (positive control)): 1.4*** % of time
CNCC[C@@H](Oc1ccccc1C)c1ccccc1 [Atomoxetine, reference compound] | 10.7 ± 2.3 |  |  |  |  |  |  |  |  |  |  |  |  |  |  |  |  |  |  |  | % Choice of the large but delayed reward on Drug sessions ([3]; 1 mg/kg i.p. 30 min before the test): 40.0 ± 2.2 %
COc1cc(N2CCOCC2)cc(C)c1NC(=O)CC1CCCC1 [Compound 2] | 11.7 ± 2.5 | 15.5 % of time | 17.3 % of time | 4.0 % of time | 63.1 % of time | 32.8*** % of time | 0.7*** % of time | 0.2*** % of time | 2.4 % of time | 96.6*** % of time | 0.9*** % of time | 5.3 % of time | 7.2 % of time | 18.2* % of time | 69.3 % of time | 12.5 % of time | 0.4** % of time | 0.8*** % of time | 26.2 % of time | 72.7** % of time | % Choice of the large but delayed reward on Drug sessions ([3]; 1 mg/kg s.c. 30 min before the test): 33.3 ± 3.3 %; % of time Agonistic behaviour [2, 5]: 1.2*** % of time
Cc1cc(N2CCOCC2)nc(C)c1NC(=O)CC(C)(C)C [Compound 3, N-(2,4-dimethyl-6-morpholin-4-yl-pyridin-3-yl)-3,3-dimethylbutyramide] | 8.3 ± 2.8 | 12.0 % of time | 12.3 % of time | 3.4 % of time | 72.3 % of time | 24.3 % of time | 0.2*** % of time | 0.2*** % of time | 2.3 % of time | 97.4*** % of time | 0.3*** % of time | 5.9 % of time | 8.5 % of time | 20.2 % of time | 65.4 % of time | 14.4 % of time | 0.1** % of time | 0.0*** % of time | 20.0 % of time | 79.9*** % of time | % Choice of the large but delayed reward on Drug sessions ([3]; 2.5 mg/kg s.c. 30 min before the test): 25.0 ± 6.7 %; % of time Agonistic behaviour [2, 5]: 0.1*** % of time
